Assay results published in paper PMC10295897, “A Novel MDM2-Binding Chalcone Induces Apoptosis of Oral Squamous Cell Carcinoma” (Biomedicines, 2023).
Read-outs that look alike come from different tables or passages of the source.

What was measured:
Assay type in all cases: cell-based, human
SCC25 cells = assay: MTT cell viability assay, SCC25 cells
Description: (§1) Human SCC-4, SCC-9, and SCC-25 cells derived from a human oral tongue SCC (squamous cell carcinoma) were obtained from the ATCC (CRL-1624, CRL-1629, and CRL-1628, respectively) and maintained in 1:1 DMEM/F12 (Dulbecco’s modified Eagle medium and Ham’s F12 medium; Gibco (Thermo Fisher, Waltham, MA, USA)) supplemented with 10% (v/v) FBS (fetal bovine serum; Invitrogen, Thermo Fisher, Waltham, MA, USA) and 400 ng/mL hydrocortisone (Sigma-Aldrich Co., St. Louis, MO, USA). Primary normal human gingival fibroblasts were obtained from the ATCC (PCS-201-018; HGF) and maintained in DMEM supplemented with 10% (v/v) FBS and were used in a maximum of six passages. The cells were grown in a humidified environment containing 5% CO2 at 37 °C. For all biological experiments, the compounds and control nutlin 3a were solubilized in 100% DMSO (all Sigma-Aldrich) to a final concentration of 10 mM. Carboplatin stock was prepared in water (Fauldcarbo®; LibbsFarmacêutica, São Paulo, SP, Brazil) and was used as a standard anticancer compound.
(§2) The viability of SCC cell lines, HT-29, HCT-116, HEP2G and primary human fibroblast cells was evaluated using the MTT assay as in [26]. Briefly, the cells were grown in duplicates in 96-well plates (5 × 10^3 cells/well) until confluence. Then, the medium was removed, fresh medium was added, and the cells were returned to the incubator in the presence of different compounds. DMSO at the same concentrations was used as a 100% cell viability control. After 48 h, the cells were incubated with 5 mg/mL MTT reagent (3-(4,5-dimethyl-2-thiazolyl)-2,5-diphenyl-2-H-tetrazolium bromide) (Sigma-Aldrich Co., St. Louis, MO, USA) for 3.5 h. After that, formazan crystals were dissolved in MTT solvent solution (DMSO/methanol 1:1 v/v), and the absorbance at 560 nm was evaluated using an EPOCH microplate spectrophotometer (BioTek Instruments, Winooski, VT, USA) with the background absorbance at 670 nm subtracted. Each of the six compounds was tested at six or seven different concentrations, ranging from 0.3 µM to 200 µM in cancer cell lines (SCC-4, SCC-9 and SCC-25) and 0.3 µM to 200 µM in primary normal human gingival fibroblasts. Controls (carboplatin, nutlin 3a) were tested at six or seven different concentrations ranging from 0.05 µM to 1000 µM in cancer cells and normal cells, depending on the compound.
(§3) The data are presented as means ± SD. IC values for the MTT assays were obtained by nonlinear regression using the […] 5.0 program (Intuitive Software for Science, San Diego, CA, USA) from at least three independent experiments. A dose–response (inhibitor) vs. response curve using the least squares method was used to determine the IC50, SD, and R^2 of the data. The selectivity index was calculated as SI = IC50 of the compound in normal oral fibroblast cells/IC50 of the same compound for each cancer cell line (SCC-4, SCC-9, SCC-25, HCT-116, HT29 and HEP2G), and the mean was calculated when indicated.

SCC-9 cells = assay: Caspase-3/7 flow cytometry; details: SCC9, 2 × IC50, 48 h
Description: Cells of the SCC9 cell line were plated in 6-well plates (5 × 10^5 cells/well), trypsinized 48 h after treatment, labeled using the Annexin V-FITC Apoptosis Detection Kit according to the manufacturer’s protocol (#BMS500FI/300, Invitrogen), and analyzed by FACScalibur flow cytometry as in [35]. Furthermore, 5 × 10^4 SCC-9 cells were plated in a 24-well plate containing 1 mL of DMEM/F12 with 10% FBS per well. CellEvent™ Caspase-3/7 Reagent (#R37111, Invitrogen) was diluted in a culture medium according to the manufacturer’s instructions. […] The cells were analyzed by flow cytometry after 48 h of treatment.

SCC9 cells = assay: MTT cell viability assay, SCC9 oral cancer cells; details: for IC50: Homo sapiens, SCC-9, 48 h, MTT
Description: as §1, §2, §3
Initially, the six chalcones (1a–f) were submitted to the MTT assay to evaluate their cytotoxicity. The assay was performed using the oral cancer cell line SCC9, and the results were analyzed by a non-linear regression curve to determine the value of the half maximal inhibitory concentration (IC50). As controls, known chemotherapeutic agents were used, namely carboplatin, routinely used in the treatment of oral cancer, and doxorubicin, widely used for other types of cancers.

Question: What does the source list for Cc1cccc(C)c1-n1cc(/C=C/C(=O)c2ccccc2N)nn1 [1f, (E)-1-(2-Aminophenyl)-3-(1-(2,6-dimethylphenyl)-1H-1,2,3-triazol-4-yl)prop-2-en-1-one]?
Answer: IC50 (SCC25 cells; Homo sapiens, SCC-25, 48 h, MTT): 5.03 µM; SCC25 S.I. (SCC25 cells; selective index = IC50 HGF / IC50 SCC25): 5.88; caspase 3/7 activity (SCC-9 cells): 47.5%; IC50 (SCC9 cells; 48 h, read-out: SCC9 IC50): 3.87 µM; IC50 (SCC9 cells; SCC9, 48 h, read-out: IC50): 3.87 µM; SCC9 S.I. (SCC9 cells; selective index = IC50 HGF / IC50 SCC9): 7.63
